The text below walks through data of patent publication US20130303509A1, “NAMPT INHIBITORS” (AbbVie Inc., priority 2012, published 2013).

As usually defined, the IC50 is the midpoint of a concentration-inhibition curve. The low end stands for greater potency in that assay, the high end for weaker potency in that assay.

The test deals with PC3 cells. The experiment in a line: NAMPT Cell Proliferation Assay. Format: cell-based. The conditions noted are these: Homo sapiens, PC-3, 120 h, 5 days incubation, cell viability by Cell Titer Glo. A digest of the protocol:
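Five-day CellTiter-Glo viability readout in PC3 cells grown in RPMI/10% heat-inactivated FBS. Compounds added after overnight attachment as a 10-fold dilution series, […]. Percent inhibition fitted to sigmoidal dose-response to derive IC50.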
A general note: In ATP-based viability assays light output follows the ATP content of the culture.
`CC(=O)N[C@@H](CC(C)C)C(=O)N1CCC(c2ccc(NC(=O)C3CN(c4cccnn4)C3)cc2)CC1` [Example 385, N-{4-[1-(N-acetyl-L-leucyl)piperidin-4-yl]phenyl}-1-(pyridazin-3-yl)azetidine-3-carboxamide]: the IC50 is 23.2 nM.
For `O=C(Nc1ccc(C2CCN(C(=O)C(c3ccccc3)c3ccccc3)CC2)cc1)C1CN(c2cccnn2)C1` [Example 386, N-{4-[1-(diphenylacetyl)piperidin-4-yl]phenyl}-1-(pyridazin-3-yl)azetidine-3-carboxamide], 3.18 nM corresponded to half-maximal inhibition (IC50).
Next, `Cc1c(F)cccc1C(=O)N1CCC(c2ccc(NC(=O)C3CN(c4cccnn4)C3)cc2)CC1` [Example 387, N-{4-[1-(3-fluoro-2-methylbenzoyl)piperidin-4-yl]phenyl}-1-(pyridazin-3-yl)azetidine-3-carboxamide]: 2.2 nM; `Cc1ccc(F)cc1C(=O)N1CCC(c2ccc(NC(=O)C3CN(c4cccnn4)C3)cc2)CC1` [Example 388, N-{4-[1-(5-fluoro-2-methylbenzoyl)piperidin-4-yl]phenyl}-1-(pyridazin-3-yl)azetidine-3-carboxamide]: 0.88 nM.
Molecule `Cc1ccc(C(=O)N2CCC(c3ccc(NC(=O)C4CN(c5cccnn5)C4)cc3)CC2)cc1F` [Example 389, N-{4-[1-(3-fluoro-4-methylbenzoyl)piperidin-4-yl]phenyl}-1-(pyridazin-3-yl)azetidine-3-carboxamide] displayed an IC50 of 7.17 nM.
In turn, `O=C(Nc1ccc(C2CCN(C(=O)c3cccc(F)c3F)CC2)cc1)C1CN(c2cccnn2)C1` [Example 390, N-{4-[1-(2,3-difluorobenzoyl)piperidin-4-yl]phenyl}-1-(pyridazin-3-yl)azetidine-3-carboxamide] registered an IC50 of 1.5 nM.
The figure for `O=C(Nc1ccc(C2CCN(C(=O)c3ccc(F)cc3F)CC2)cc1)C1CN(c2cccnn2)C1` [Example 391, N-{4-[1-(2,4-difluorobenzoyl)piperidin-4-yl]phenyl}-1-(pyridazin-3-yl)azetidine-3-carboxamide] is 5.99 nM; for `CC(C)c1ccc(C(=O)N2CCC(c3ccc(NC(=O)C4CN(c5cccnn5)C4)cc3)CC2)cc1` [Example 392, N-(4-{1-[4-(propan-2-yl)benzoyl]piperidin-4-yl}phenyl)-1-(pyridazin-3-yl)azetidine-3-carboxamide] it is 3.54 nM; for `CC(C)(C)c1ccc(C(=O)N2CCC(c3ccc(NC(=O)C4CN(c5cccnn5)C4)cc3)CC2)cc1` [Example 393, N-{4-[1-(4-tert-butylbenzoyl)piperidin-4-yl]phenyl}-1-(pyridazin-3-yl)azetidine-3-carboxamide] it is 3.72 nM.
The figure for `O=C(Nc1ccc(C2CCN(C(=O)c3cc(C(F)(F)F)ccc3F)CC2)cc1)C1CN(c2cccnn2)C1` [Example 394, N-(4-{1-[2-fluoro-5-(trifluoromethyl)benzoyl]piperidin-4-yl}phenyl)-1-(pyridazin-3-yl)azetidine-3-carboxamide] is 1.99 nM; for `O=C(Nc1ccc(C2CCN(C(=O)c3cc(C(F)(F)F)ccc3Cl)CC2)cc1)C1CN(c2cccnn2)C1` [Example 395, N-(4-{1-[2-chloro-5-(trifluoromethyl)benzoyl]piperidin-4-yl}phenyl)-1-(pyridazin-3-yl)azetidine-3-carboxamide] it is 2.14 nM; for `O=C(Nc1ccc(O[C@@H]2CCN(C(=O)c3ccc(F)cc3)C2)cc1)C1CN(c2ccnnc2)C1` [Example 396, N-(4-{[(3R)-1-(4-fluorobenzoyl)pyrrolidin-3-yl]oxy}phenyl)-1-(pyridazin-4-yl)azetidine-3-carboxamide] it is 68.5 nM.
Consider `O=C(Nc1ccc(C2CCN(C(=O)CC3CCCC3)CC2)cc1)C1CN(c2cccnn2)C1` [Example 397, N-{4-[1-(cyclopentylacetyl)piperidin-4-yl]phenyl}-1-(pyridazin-3-yl)azetidine-3-carboxamide], for which the IC50 was determined as 3.35 nM.
`Cc1ccc(OCC(=O)N2CCC(c3ccc(NC(=O)C4CN(c5cccnn5)C4)cc3)CC2)cc1` [Example 398, N-(4-{1-[(4-methylphenoxy)acetyl]piperidin-4-yl}phenyl)-1-(pyridazin-3-yl)azetidine-3-carboxamide] came in with an IC50 of 8.19 nM.
The figure for `CC[C@H](C(=O)N1CCC(c2ccc(NC(=O)C3CN(c4cccnn4)C3)cc2)CC1)c1ccccc1` [Example 399, N-(4-{1-[(2S)-2-phenylbutanoyl]piperidin-4-yl}phenyl)-1-(pyridazin-3-yl)azetidine-3-carboxamide] is 6.35 nM; for `O=C(Nc1ccc(C2CCN(C(=O)c3cc(F)cc(F)c3)CC2)cc1)C1CN(c2cccnn2)C1` [Example 400, N-{4-[1-(3,5-difluorobenzoyl)piperidin-4-yl]phenyl}-1-(pyridazin-3-yl)azetidine-3-carboxamide] it is 6.8 nM.
Next, `O=C(Nc1ccc(C2CCN(C(=O)c3ccc(Cl)cc3)CC2)cc1)C1CN(c2cccnn2)C1` [Example 401, N-{4-[1-(4-chlorobenzoyl)piperidin-4-yl]phenyl}-1-(pyridazin-3-yl)azetidine-3-carboxamide]: 8.54 nM; `CC(C)(C)C(=O)N1CCC(c2ccc(NC(=O)C3CN(c4cccnn4)C3)cc2)CC1` [Example 402, N-{4-[1-(2,2-dimethylpropanoyl)piperidin-4-yl]phenyl}-1-(pyridazin-3-yl)azetidine-3-carboxamide]: 1.68 nM; `O=C(Nc1ccc(C2CCN(C(=O)Cc3cccc(C(F)(F)F)c3)CC2)cc1)C1CN(c2cccnn2)C1` [Example 403, 1-(pyridazin-3-yl)-N-[4-(1-{[3-(trifluoromethyl)phenyl]acetyl}piperidin-4-yl)phenyl]azetidine-3-carboxamide]: 4.1 nM.
The molecule `O=C(Nc1ccc(C2CCN(C(=O)Cc3cccc(Cl)c3)CC2)cc1)C1CN(c2cccnn2)C1` [Example 404, N-(4-{1-[(3-chlorophenyl)acetyl]piperidin-4-yl}phenyl)-1-(pyridazin-3-yl)azetidine-3-carboxamide] showed an IC50 of 2.7 nM.
The figure for `O=C(Nc1ccc(C2CCN(C(=O)Cc3ccc(Cl)cc3Cl)CC2)cc1)C1CN(c2cccnn2)C1` [Example 405, N-(4-{1-[(2,4-dichlorophenyl)acetyl]piperidin-4-yl}phenyl)-1-(pyridazin-3-yl)azetidine-3-carboxamide] is 6.75 nM.
As to `O=C(Nc1ccc(C2CCN(C(=O)c3cccc4ccccc34)CC2)cc1)C1CN(c2cccnn2)C1` [Example 406, N-{4-[1-(naphthalen-1-ylcarbonyl)piperidin-4-yl]phenyl}-1-(pyridazin-3-yl)azetidine-3-carboxamide], the IC50 came out at 7.42 nM.
`CO[C@@H](C(=O)N1CCC(c2ccc(NC(=O)C3CN(c4cccnn4)C3)cc2)CC1)c1ccccc1` [Example 407, N-(4-{1-[(2R)-2-methoxy-2-phenylacetyl]piperidin-4-yl}phenyl)-1-(pyridazin-3-yl)azetidine-3-carboxamide] returned an IC50 of 1.01 nM.
Next, `O=C(NCC(=O)N1CCC(c2ccc(NC(=O)C3CN(c4cccnn4)C3)cc2)CC1)c1ccco1` [Example 408, N-(4-{1-[N-(furan-2-ylcarbonyl)glycyl]piperidin-4-yl}phenyl)-1-(pyridazin-3-yl)azetidine-3-carboxamide]: 29.9 nM; `O=C(Nc1ccc(C2CCN(C(=O)COCc3ccccc3)CC2)cc1)C1CN(c2cccnn2)C1` [Example 409, N-(4-{1-[(benzyloxy)acetyl]piperidin-4-yl}phenyl)-1-(pyridazin-3-yl)azetidine-3-carboxamide]: 6.72 nM.
Molecule `O=C(Nc1ccc(C2CCN(C(=O)Cc3cccc4ccccc34)CC2)cc1)C1CN(c2cccnn2)C1` [Example 410, N-{4-[1-(naphthalen-1-ylacetyl)piperidin-4-yl]phenyl}-1-(pyridazin-3-yl)azetidine-3-carboxamide] showed an IC50 of 8.68 nM.
The figure for `O=C(Nc1ccc(C2CCN(C(=O)C3CC3)CC2)cc1)C1CN(c2cccnn2)C1` [Example 411, N-{4-[1-(cyclopropylcarbonyl)piperidin-4-yl]phenyl}-1-(pyridazin-3-yl)azetidine-3-carboxamide] is 7.15 nM.
As to `O=C(Nc1ccc(C2CCN(C(=O)C3CCCO3)CC2)cc1)C1CN(c2cccnn2)C1` (stereo not drawn) [Example 412, 1-(pyridazin-3-yl)-N-{4-[1-(tetrahydrofuran-2-ylcarbonyl)piperidin-4-yl]phenyl}azetidine-3-carboxamide], the IC50 was found to be 1.37 nM.
The figure for `O=C(NCC(=O)N1CCC(c2ccc(NC(=O)C3CN(c4cccnn4)C3)cc2)CC1)c1ccccc1` [Example 413, N-{4-[1-(N-benzoylglycyl)piperidin-4-yl]phenyl}-1-(pyridazin-3-yl)azetidine-3-carboxamide] is 10 nM; for `O=C(Nc1ccc(C2CCN(C(=O)C3CCOC3)CC2)cc1)C1CN(c2cccnn2)C1` (stereo not drawn) [Example 414, 1-(pyridazin-3-yl)-N-{4-[1-(tetrahydrofuran-3-ylcarbonyl)piperidin-4-yl]phenyl}azetidine-3-carboxamide] it is 7.4 nM; for `O=C(Nc1ccc(C2CCN(C(=O)CCCc3cccs3)CC2)cc1)C1CN(c2cccnn2)C1` [Example 415, 1-(pyridazin-3-yl)-N-(4-{1-[4-(thiophen-2-yl)butanoyl]piperidin-4-yl}phenyl)azetidine-3-carboxamide] it is 2.28 nM.
Take `O=C(Nc1ccc(C2CCN(C(=O)c3cc(F)ccc3F)CC2)cc1)C1CN(c2cccnn2)C1` [Example 416, N-{4-[1-(2,5-difluorobenzoyl)piperidin-4-yl]phenyl}-1-(pyridazin-3-yl)azetidine-3-carboxamide]: it took 1.12 nM to reach half-maximal inhibition (IC50).
`O=C(Nc1ccc(C2CCN(C(=O)C3CCC3)CC2)cc1)C1CN(c2cccnn2)C1` [Example 417, N-{4-[1-(cyclobutylcarbonyl)piperidin-4-yl]phenyl}-1-(pyridazin-3-yl)azetidine-3-carboxamide] yielded an IC50 of 6.45 nM.
